Test results reported in patent US20190060298A1, “NEW DRUG FOR THE TREATMENT AND/OR PREVENTION OF DEPRESSIVE DISORDERS” (SORBONNE UNIVERSITE, priority 2013, published 2019).

Experiments:
[1] = tested on: aconitase; assay: Aconitase activity in hippocampus; assay type: in vivo, Sprague-Dawley rats; conditions: V rats; 288 μmol/kg/day, 15 days from D11; D31
Method: Rats were killed by decapitation and their right hippocampi were rapidly removed and homogenized in ice-cold buffer (5 mM Tris-HCl pH 7.5, 210 mM mannitol, 70 mM sucrose, 1 mM EDTA and 2.3 mM sodium citrate). Homogenates were rapidly centrifuged (14,000×g, 10 min, 4° C.) and the pellets were immediately frozen in liquid nitrogen and stored at −80° C. Aconitase activity was measured spectrophotometrically (Gardner et al., 1994), by monitoring the linear absorbance change at 340 nm, at 25° C., in a 1.0-ml reaction mixture containing 50 mM Tris HCl (pH 7.5), 0.05% BSA, 2 mM sodium citrate, 2 mM MnCl2, 0.4 mM NADP+, 0.85 units of isocitrate dehydrogenase, and 10-20 μg of protein extract. The absorbance change associated with aconitase activity was linear with respect to time and protein concentration. One milliunit of aconitase activity was defined as the amount of enzyme catalyzing the formation of 1 nmol of D-isocitrate per min and per mg.
(§1) Tempol (4-hydroxy-2,2,6,6-tetramethylpiperidine 1-oxyl), which was administered at a dose of 288 μmol/kg/day [Sigma-Aldrich, St Louis, Mo., USA]), was dissolved in distilled water and delivered via ALZET osmotic mini-pumps (2002, Charles River Laboratories, France). […]

[2] = tested on: catalase; assay: Catalase activity in hippocampus; assay type: in vivo, Sprague-Dawley rats; conditions: 288 μmol/kg/day, 15 days from D11; D31
Method: The animals were decapitated and the left hippocampus was homogenized in ice-cold buffer (20 mM Hepes pH 7.2, 1 mM EGTA, 210 mM mannitol, 70 mM sucrose). Homogenates were centrifuged and the supernatants were retained for analysis. Catalase and total SOD activities were immediately determined with commercially available kits (Cayman Chemical, Ann Arbor, Mich., USA), in accordance with the manufacturer's instructions. SOD and catalase specific activities are expressed as units per mg of hippocampus and as nmoles of formaldehyde formed per minute per mg of hippocampal tissue, respectively.
Tempol (4-hydroxy-2,2,6,6-tetramethylpiperidine 1-oxyl), which was administered at a dose of 288 μmol/kg/day [Sigma-Aldrich, St Louis, Mo., USA]), was dissolved in distilled water and delivered via ALZET osmotic mini-pumps (2002, Charles River Laboratories, France). Tempol- or distilled water-filled pumps were implanted subcutaneously on the back of intruder rats under light anesthesia with isofluorane, 11 days after completion of the social-defeat procedure (D11), and were left in place for 15 days.

[3] = tested on: Sprague-Dawley rats; assay: Sweet water consumption after sensitization paradigm; assay type: in vivo; conditions: V animals; TEMPOL 288 μmol/kg/day 15 days from D11; after three weeks of CMS applied at D31
Method: (§2) Sprague-Dawley rats were subjected to chronic social defeat (CSD) and then, four weeks later, to three weeks of chronic mild stress (SSP rats). The chronic mild stress protocol (CMS) was performed as previously described (see Blugeot et al., 2011). The control rats were control intruders (not subjected to CSD) not exposed to the three weeks of CMS (C rats).
(§3) The CMS protocol is derived from that described by Willner et al. (1992). Briefly, various mild stresses were applied every day, over a period of three weeks. Briefly, from Monday to Friday, every morning, animals were placed in a small cage (10×16×15 cm) for 1 hour. In the afternoon, they were shaken for 10 min (Monday and Thursday), placed in a small cage containing water (2 cm high, Tuesday) or placed in another cage for 4 hours (Wednesday and Friday). Every night, the cage was inclined (45°, Tuesday and Thursday) or contained wet bedding (Wednesday and Friday). On Saturday and Sunday, the rats were subjected to a reversed dark/light cycle for 30 min, every three hours.
Experiments were performed as described by Becker et al. (2008) and Blugeot et al. (2011). Sucrose and water intakes were measured daily at 9:00 am. Weekly sweet water consumption was expressed as a percentage of control values (measured one week before the beginning of the conditioning sessions). Sweet water consumption indicated a preference for sucrose. […]

[4] = tested on: Sprague-Dawley rats; assay: Depression-like profile after sensitization paradigm (CSD then CMS); assay type: in vivo; conditions: TEMPOL administrated before CMS
Method: as §2, §3, §1

[5] = tested on: BDNF; assay: Serum BDNF assay; assay type: in vivo, Sprague-Dawley rats; conditions: vulnerable animals vs vulnerable animals treated with vehicle
Method: Blood samples (200 μl) were collected from conscious rats at various time points (D-4, D5, D11, D31 at midday). These samples were taken from the tail vein and were collected in Eppendorf tubes. The samples were centrifuged to separate off the serum, which was stored at −20° C. until BDNF analysis. BDNF concentrations were determined at a dilution of 1:25, with a commercial BDNF assay (Promega Corporation), in 96-well plates (Corning Costar® EIA plate), according to the manufacturer's instructions.
Another serum BDNF was carried out. Blood samples (200 μl) of awake rats were collected at different time-points (D-4, D9, D35, D57 at midday) from the vein of the tail into eppendorf tubes. After centrifugation, serum was separated and stored at −20° C. until analysis for BDNF. BDNF concentrations were determined at dilution of 1:25 with a commercial BDNF assay (Promega Corporation), in 96-well plates (Corning Costar® EIA plate), according to the manufacturer's instructions.
as §1

[6] = tested on: CA3 pyramidal cells; assay: CA3 dendritic architecture in Nrf2-null mice; assay type: in vivo; conditions: Tempol 288 μmol/kg/day, osmotic mini-pump, 4 weeks
Method: (§4) Nrf2-null mice were backcrossed onto the C57BL/6 J background for seven generations using alternating male and female stock mice from the CNRS TAAM UPS44 (Orléans). The resulting wild-type (Nrf2+/+) and Nrf2−/− mice were genotyped and only male mice at 6 weeks old at the beginning of the experiments were used. The level of oxidative stress in mice was first evaluated through the measure of lipid peroxidation. Lipid peroxidation was assessed by measuring TBARS formation with a commercial assay kit (Cayman Chemical, Ann Arbor, Mich., USA), in accordance with the manufacturer's instructions. TBARS concentration was calculated from an MDA standard curve and normalized.
(§5) To examine the depression-like phenotype of Nrf2-null mice, the helplessness behaviour, anhedonia and HPA hyperactivity (corticosterone, and adrenal gland weight) were assessed before and after a chronic mild stress (CMS) protocol. The neuroanatomical morphology of hippocampus in mice was estimated using Golgi Staining procedure. Tempol (4-hydroxy-2,2,6,6-tetramethylpiperidine 1-oxyl, Sigma-Aldrich, St Louis, Mo., USA), which was administered at a dose of 288 μmol/kg/day (Wilcox, 2010), was dissolved in distilled water and delivered via ALZET osmotic mini-pumps (1004, Charles River Laboratories, France). […]

[7] = tested on: Nrf2-null mice; assay: Depression-like phenotype of Nrf2-null mice after CMS; assay type: in vivo; conditions: Nrf2-null mice after three weeks of CMS; Tempol 288 μmol/kg/day from one week before CMS to end
Method: as §4, §5

CC1(C)CC(O)CC(C)(C)N1[O] [TEMPOL, 4-hydroxy-2,2,6,6-tetramethylpiperidin-1-oxyl] was tested, and the aconitase activity [1] was “lack of aconitase activity dysfunction”, the catalase activity [2] was “no effect” and the sweet water consumption [3] was “prevented”. For the same molecule, the “depression-like profile generated by the CMS” value [4] was “abolished”, the “serum BDNF levels” value [5] was “induced the recovery of serum BDNF levels” and the “dendritic retraction in CA3 pyramidal cells” value [6] was “prevented”. For the same molecule, the “depression-like phenotype (helplessness behaviour, anhedonia, HPA hyperactivity)” value [7] was “prevented”.
